Assay results from US20050186144A1, “Treatment methods” (SCHERING CORPORATION, priority 2004, published 2005).

Assays:
[1] = Systemic effect of intranasal mometasone furoate (HPLC metabolite profiling of plasma radioactivity, first-pass metabolism, cortisol secretion); format: in vivo; details: administered intranasally
[2] = Phase-2 double-blind, randomized, placebo-controlled study in acute rhinosinusitis; format: in vivo, human; details: Amoxicillin 500 mg three times a day
Method: A Phase-2, dose-ranging, double-blind, double-dummy, randomized, multi-center, multi-national study with 4 parallel groups was carried out. There were three treatment regimens: Mometasone Furoate Nasal Spray 200 μg was administered once a day; Mometasone Furoate Nasal Spray 200 μg also was administered twice a day; Amoxicillin 500 mg was administered three times a day. All three were administered against placebo. The regimens were administered to subjects 12 years of age or older with acute rhinosinusitis that was clinically diagnosed with symptoms present for 7 days or more and 28 days or less. Subjects with a major symptom score (sum of symptoms—facial pain, rhinorrhea, post nasal drip, sinus headache, nasal congestion—each scored 0—none-to 3—severe) greater than or equal to 5 and less than or equal to 12 at baseline with less than or equal to 3 symptoms scored severe were included. Subjects with a bacterial rhinosinusitis suspected on the presence of fever greater than or equal to 101° F./38.3° C., persistent severe unilateral facial pain/tooth pain, orbital or peri-orbital facial swelling, dental involvement; and/or worsening symptoms after initial improvement were excluded from the study. The primary efficacy variable of the study was the actual major symptom score (averaged daily for AM and PM assessments over 15 days of treatment). […]

| first-pass metabolism in the liver [1] [%] | reduction in cortisol secretion levels [1] | SMILES | major symptom score, efficacy vs. placebo ([2]; p=0.275) | recurrence rate ([2]; follow-up phase (14 days), MFNS 200 μg twice a day) [%] |
| --- | --- | --- | --- | --- |
| > 98 | minimal reduction | C[C@@H]1C[C@H]2[C@@H]3CCC4=CC(=O)C=C[C@]4(C)[C@@]3(Cl)[C@@H](O)C[C@]2(C)[C@@]1(OC(=O)c1ccco1)C(=O)CCl [mometasone furoate, Mometasone furoate] |  |  |
|  |  | CC1(C)S[C@@H]2[C@H](NC(=O)[C@H](N)c3ccc(O)cc3)C(=O)N2[C@H]1C(=O)O [Amoxicillin] | not different from placebo | 8 |
